# Columns and labels:
# Assay type in all cases: biochemical
# [1] = target: PI3K α (Homo sapiens (Human), UniProt P42336); assay: PI 3-Kinase (human) HTRF assay, p110α/p85α
# [2] = target: PI3K β (Homo sapiens (Human), UniProt P42338); assay: PI 3-Kinase (human) HTRF assay, p110β/p85α
# [3] = target: PI3K δ (Homo sapiens (Human), UniProt O00329); assay: PI 3-Kinase (human) HTRF assay, p110δ/p85α
# [4] = target: PI3K γ (Homo sapiens (Human), UniProt P48736); assay: PI 3-Kinase (human) HTRF assay, p110γ; conditions: read-out: PI3K γ IC50
# PI3K γ, sequence (P48736 whole entry): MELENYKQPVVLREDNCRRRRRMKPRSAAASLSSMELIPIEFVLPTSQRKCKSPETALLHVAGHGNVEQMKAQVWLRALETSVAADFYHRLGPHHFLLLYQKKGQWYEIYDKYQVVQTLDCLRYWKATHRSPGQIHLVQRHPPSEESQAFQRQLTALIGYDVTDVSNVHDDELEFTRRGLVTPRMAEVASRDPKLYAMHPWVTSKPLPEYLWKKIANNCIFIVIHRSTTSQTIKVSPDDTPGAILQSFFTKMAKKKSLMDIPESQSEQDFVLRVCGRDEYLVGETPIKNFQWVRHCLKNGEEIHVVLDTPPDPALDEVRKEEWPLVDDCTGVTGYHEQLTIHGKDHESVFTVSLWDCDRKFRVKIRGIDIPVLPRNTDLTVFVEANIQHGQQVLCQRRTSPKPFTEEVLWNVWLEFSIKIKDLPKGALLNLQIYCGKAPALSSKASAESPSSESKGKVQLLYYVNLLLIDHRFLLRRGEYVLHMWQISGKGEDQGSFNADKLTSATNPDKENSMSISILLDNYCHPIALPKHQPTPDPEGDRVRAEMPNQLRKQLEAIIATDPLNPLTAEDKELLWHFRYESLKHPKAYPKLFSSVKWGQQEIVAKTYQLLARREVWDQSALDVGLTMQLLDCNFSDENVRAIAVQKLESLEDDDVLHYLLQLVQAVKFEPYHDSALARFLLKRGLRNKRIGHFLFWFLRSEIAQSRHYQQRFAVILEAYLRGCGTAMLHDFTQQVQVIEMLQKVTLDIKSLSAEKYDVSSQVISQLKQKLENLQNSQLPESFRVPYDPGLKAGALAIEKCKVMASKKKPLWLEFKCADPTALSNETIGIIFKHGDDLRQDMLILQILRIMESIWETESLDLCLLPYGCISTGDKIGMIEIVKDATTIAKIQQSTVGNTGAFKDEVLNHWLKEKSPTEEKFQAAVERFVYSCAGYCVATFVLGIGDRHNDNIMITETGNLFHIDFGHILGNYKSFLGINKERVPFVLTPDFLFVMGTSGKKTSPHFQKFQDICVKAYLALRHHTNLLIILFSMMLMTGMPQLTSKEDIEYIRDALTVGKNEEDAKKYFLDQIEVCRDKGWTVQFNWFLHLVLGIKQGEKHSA
# PI3K β, sequence (P42338 whole entry): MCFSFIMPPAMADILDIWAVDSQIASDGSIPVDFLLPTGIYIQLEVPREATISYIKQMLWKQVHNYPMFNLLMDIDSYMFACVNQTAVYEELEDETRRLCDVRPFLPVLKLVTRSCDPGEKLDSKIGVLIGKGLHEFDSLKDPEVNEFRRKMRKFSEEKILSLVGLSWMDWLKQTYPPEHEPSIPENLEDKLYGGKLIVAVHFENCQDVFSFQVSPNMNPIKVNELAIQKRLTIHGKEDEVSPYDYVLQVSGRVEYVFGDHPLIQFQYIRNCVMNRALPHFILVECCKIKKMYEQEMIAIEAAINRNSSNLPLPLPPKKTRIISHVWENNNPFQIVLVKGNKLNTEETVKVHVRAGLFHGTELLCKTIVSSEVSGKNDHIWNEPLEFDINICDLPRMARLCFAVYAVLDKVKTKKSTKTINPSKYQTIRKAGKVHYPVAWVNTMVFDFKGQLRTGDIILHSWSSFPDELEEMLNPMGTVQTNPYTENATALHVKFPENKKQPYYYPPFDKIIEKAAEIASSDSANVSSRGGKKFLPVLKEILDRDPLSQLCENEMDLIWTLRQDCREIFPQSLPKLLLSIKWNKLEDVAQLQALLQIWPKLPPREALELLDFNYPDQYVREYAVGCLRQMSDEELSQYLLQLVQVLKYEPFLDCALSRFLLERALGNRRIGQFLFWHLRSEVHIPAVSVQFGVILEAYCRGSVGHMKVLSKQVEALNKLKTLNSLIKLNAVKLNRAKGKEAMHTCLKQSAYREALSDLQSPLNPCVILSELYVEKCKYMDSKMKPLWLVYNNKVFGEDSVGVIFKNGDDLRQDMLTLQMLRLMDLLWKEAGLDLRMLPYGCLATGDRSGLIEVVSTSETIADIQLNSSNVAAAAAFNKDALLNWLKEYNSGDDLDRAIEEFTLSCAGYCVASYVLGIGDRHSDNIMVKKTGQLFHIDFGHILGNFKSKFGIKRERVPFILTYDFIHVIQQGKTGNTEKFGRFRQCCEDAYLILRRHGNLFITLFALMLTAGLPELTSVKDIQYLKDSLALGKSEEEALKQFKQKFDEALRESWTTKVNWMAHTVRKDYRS
# PI3K β, sequence (P27986 whole entry partner): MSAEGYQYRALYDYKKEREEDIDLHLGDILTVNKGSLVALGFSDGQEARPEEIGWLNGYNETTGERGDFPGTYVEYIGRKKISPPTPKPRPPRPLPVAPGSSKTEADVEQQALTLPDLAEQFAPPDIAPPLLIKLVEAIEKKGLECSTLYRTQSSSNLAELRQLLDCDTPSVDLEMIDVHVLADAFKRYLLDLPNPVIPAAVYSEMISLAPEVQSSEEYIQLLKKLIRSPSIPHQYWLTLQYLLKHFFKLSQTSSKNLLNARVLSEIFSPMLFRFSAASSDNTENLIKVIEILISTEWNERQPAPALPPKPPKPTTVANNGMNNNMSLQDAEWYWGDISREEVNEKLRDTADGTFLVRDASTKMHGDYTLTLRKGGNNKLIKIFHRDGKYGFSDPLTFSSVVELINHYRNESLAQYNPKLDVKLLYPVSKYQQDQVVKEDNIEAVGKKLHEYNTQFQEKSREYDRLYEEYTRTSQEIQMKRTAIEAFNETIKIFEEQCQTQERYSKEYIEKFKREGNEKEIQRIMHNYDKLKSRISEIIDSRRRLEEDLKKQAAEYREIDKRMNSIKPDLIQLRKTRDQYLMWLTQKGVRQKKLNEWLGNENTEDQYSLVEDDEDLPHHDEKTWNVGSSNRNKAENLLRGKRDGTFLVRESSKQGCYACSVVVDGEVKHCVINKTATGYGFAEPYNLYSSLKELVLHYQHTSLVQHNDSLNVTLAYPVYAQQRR
# PI3K α, sequence (P42336 whole entry): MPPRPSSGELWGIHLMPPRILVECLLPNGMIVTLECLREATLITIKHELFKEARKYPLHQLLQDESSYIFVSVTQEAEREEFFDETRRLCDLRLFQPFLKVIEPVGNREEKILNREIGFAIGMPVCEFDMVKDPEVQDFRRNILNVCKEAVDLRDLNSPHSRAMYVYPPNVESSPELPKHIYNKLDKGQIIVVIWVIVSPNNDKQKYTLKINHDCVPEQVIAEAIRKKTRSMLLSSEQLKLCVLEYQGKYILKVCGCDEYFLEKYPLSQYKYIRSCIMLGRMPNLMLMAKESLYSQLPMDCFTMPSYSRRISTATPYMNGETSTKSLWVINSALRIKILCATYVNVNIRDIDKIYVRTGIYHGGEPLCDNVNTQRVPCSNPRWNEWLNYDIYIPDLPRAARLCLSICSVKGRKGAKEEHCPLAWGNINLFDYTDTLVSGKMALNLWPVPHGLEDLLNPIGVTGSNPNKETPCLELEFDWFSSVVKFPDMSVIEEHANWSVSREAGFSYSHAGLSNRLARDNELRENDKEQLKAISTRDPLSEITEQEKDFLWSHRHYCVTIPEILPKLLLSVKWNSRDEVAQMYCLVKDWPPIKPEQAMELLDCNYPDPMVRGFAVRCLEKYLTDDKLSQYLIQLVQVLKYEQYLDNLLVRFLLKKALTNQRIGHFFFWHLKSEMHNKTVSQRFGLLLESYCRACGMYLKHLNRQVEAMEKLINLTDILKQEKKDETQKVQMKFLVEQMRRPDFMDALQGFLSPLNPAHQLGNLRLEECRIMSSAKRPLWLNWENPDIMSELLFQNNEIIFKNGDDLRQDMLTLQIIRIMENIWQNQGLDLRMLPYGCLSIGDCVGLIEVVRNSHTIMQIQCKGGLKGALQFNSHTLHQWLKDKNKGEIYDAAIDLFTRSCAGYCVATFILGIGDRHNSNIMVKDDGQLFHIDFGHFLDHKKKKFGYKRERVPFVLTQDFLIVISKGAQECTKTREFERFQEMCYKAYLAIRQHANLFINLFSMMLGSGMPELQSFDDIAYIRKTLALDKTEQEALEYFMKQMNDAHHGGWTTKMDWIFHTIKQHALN
# PI3K α, sequence (P27986 whole entry partner): as the sequence (P27986 whole entry partner) above
# PI3K δ, sequence (O00329 whole entry): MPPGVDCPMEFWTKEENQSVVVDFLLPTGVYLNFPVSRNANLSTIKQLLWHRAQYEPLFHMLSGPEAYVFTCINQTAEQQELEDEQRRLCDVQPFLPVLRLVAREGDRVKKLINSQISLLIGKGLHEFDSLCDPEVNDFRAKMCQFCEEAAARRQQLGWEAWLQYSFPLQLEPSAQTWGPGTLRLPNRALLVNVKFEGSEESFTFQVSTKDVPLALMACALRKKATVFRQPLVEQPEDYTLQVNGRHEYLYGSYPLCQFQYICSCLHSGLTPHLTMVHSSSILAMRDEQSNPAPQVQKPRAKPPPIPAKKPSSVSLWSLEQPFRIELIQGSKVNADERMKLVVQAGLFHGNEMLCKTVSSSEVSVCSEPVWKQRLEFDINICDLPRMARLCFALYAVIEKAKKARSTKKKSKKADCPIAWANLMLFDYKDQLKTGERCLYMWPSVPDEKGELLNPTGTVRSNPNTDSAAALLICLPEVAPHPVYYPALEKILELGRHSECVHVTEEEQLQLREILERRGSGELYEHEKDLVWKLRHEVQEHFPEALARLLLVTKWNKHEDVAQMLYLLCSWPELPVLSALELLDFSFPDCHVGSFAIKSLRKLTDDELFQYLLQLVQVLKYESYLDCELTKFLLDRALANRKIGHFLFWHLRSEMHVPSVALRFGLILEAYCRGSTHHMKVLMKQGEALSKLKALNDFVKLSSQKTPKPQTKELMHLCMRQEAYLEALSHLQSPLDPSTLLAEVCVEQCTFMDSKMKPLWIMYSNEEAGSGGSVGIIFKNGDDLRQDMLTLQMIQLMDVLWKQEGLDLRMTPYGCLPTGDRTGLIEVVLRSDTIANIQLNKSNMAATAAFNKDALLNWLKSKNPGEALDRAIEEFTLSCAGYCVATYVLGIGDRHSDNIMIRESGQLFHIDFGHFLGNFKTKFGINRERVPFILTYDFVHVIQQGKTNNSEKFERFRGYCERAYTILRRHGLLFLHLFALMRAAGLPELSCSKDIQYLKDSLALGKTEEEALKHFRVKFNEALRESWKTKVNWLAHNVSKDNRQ
# PI3K δ, sequence (P27986 whole entry partner): as the sequence (P27986 whole entry partner) above
IC50 [1] [µM],IC50 [2] [µM],IC50 [3] [µM],IC50 [4] [µM],SMILES
< 0.1,< 10,< 10,< 1,C[C@@H](N)C(=O)N1CCN(c2cnc3ccc(-c4ccc5oc(N)nc5c4)nc3n2)CC1
< 0.1,> 10,> 10,< 10,Nc1nc2cc(-c3ccc4ncc(N5CCCCC5)nc4c3)ccc2o1
< 0.1,< 1,< 10,< 0.1,Cc1nccn1-c1cnc2ccc(-c3ccc4oc(N)nc4c3)cc2n1
< 1,> 10,> 10,< 10,C[C@@H]1CN(c2cnc3ccc(-c4ccc5oc(N)nc5c4)cc3n2)C[C@H](C)O1
< 0.1,< 0.1,> 10,< 10,CN1CCN(c2cnc3ccc(-c4ccc5nc(N)sc5c4)cc3n2)CC1
< 0.1,< 10,< 10,< 10,NCC(=O)N1CCN(c2cnc3ccc(-c4ccc5oc(N)nc5c4)nc3n2)CC1
< 1,< 1,> 10,< 1,Nc1nc2ccc(-c3ccc4ncc(C(=O)N5CCOCC5)n4c3)cc2o1
< 0.1,< 1,< 1,< 0.1,Nc1nc2cc(-c3ccc4ncc(N5CCCC5)nc4c3)ccc2o1
< 0.1,< 0.1,< 1,< 1,Nc1nc2cc(-c3ccc4ncc(N5CCN(CC6CC6)CC5)nc4c3)ccc2o1
< 0.1,> 10,> 10,< 10,Nc1nc2cc(-c3ccc4ncc(C(=O)N5CCN(CCO)CC5)n4c3)ccc2o1
> 10,> 10,> 10,> 10,CC(=O)Nc1cn2cc(-c3ccc4nccc(-c5ccncc5)c4c3)ccc2n1 [Compound 19]
< 0.1,< 0.1,< 1,< 1,C[C@H]1CN(c2cnc3ccc(-c4ccc5oc(N)nc5c4)cc3n2)CCN1
< 10,> 10,> 10,> 10,CN1CCN(c2nc3cc(-c4ccc5oc(N)nc5c4)ccc3c(=O)n2C)CC1
< 10,> 10,> 10,> 10,CC(C)N1CCN(C2CN(c3cnc4ccc(-c5ccc6oc(N)nc6c5)nc4n3)C2)CC1
< 1,< 1,> 10,< 10,CN1CCCN(c2cnc3ccc(-c4ccc5oc(N)nc5c4)cc3n2)CC1
< 0.1,> 10,< 10,> 10,C[C@H]1CN(C2CN(c3cnc4ccc(-c5ccc6oc(N)nc6c5)nc4n3)C2)CCN1C
< 1,< 10,> 10,< 1,Nc1nc2cc(-c3ccc4ncc(-c5cccnc5)nc4n3)ccc2o1
< 0.1,< 10,< 0.1,< 0.1,CS(=O)(=O)N1CCC(Nc2cnc3ccc(-c4ccc5oc(N)nc5c4)cc3n2)CC1
< 0.1,< 0.1,< 0.1,< 0.1,CC(=O)N1CCN(c2cnc3ccc(-c4ccc5oc(N)nc5c4)cc3n2)CC1

IC50 [1] [µM],IC50 [2] [µM],IC50 [3] [µM],IC50 [4] [µM],SMILES
< 0.1,< 10,< 10,< 1,Nc1nc2cc(-c3cn4c(-c5ccncc5)cnc4cn3)ccc2o1
< 0.1,> 10,> 10,< 0.1,Nc1nc2cc(-c3ccc4ncc(N5CCS(=O)(=O)CC5)nc4c3)ccc2o1
< 0.1,< 10,< 10,< 10,Nc1nc2cc(-c3ccc4ncc(N5CC(N6CCN(C7CC7)CC6)C5)nc4n3)ccc2o1
< 10,> 10,> 10,> 10,CN1CCN(C(=O)c2cnc3ccc(-c4ccc5oc(N)nc5c4)cc3n2)CC1
< 0.1,< 1,< 10,< 0.1,Cn1cc(-c2cnc3ccc(-c4ccc5oc(N)nc5c4)cc3n2)cn1
< 10,> 10,> 10,> 10,CC1CN(C(=O)c2cnc3ccc(-c4ccc5oc(N)nc5c4)cn23)CC(C)N1 (stereo not drawn)
< 0.1,< 10,> 10,< 0.1,Nc1nc2cc(-c3ccc4ncc(N5CCC(O)CC5)nc4n3)ccc2o1
< 10,> 10,> 10,< 10,C[C@@H]1CN(C(=O)c2cnc3ccc(-c4ccc5oc(N)nc5c4)cn23)C[C@H](C)O1
< 0.1,< 10,> 10,< 0.1,Nc1nc2cc(-c3ccc4ncc(-c5cnn(CCO)c5)nc4c3)ccc2o1
< 0.1,< 10,< 0.1,< 0.1,Nc1nc2cc(-c3ccc4ncc(C(=O)NC5CCOCC5)n4c3)ccc2o1
< 0.1,< 1,< 1,< 1,CN(C)CC(=O)N1CCC(Nc2ncnc3ccc(-c4ccc5oc(N)nc5c4)cc23)CC1
< 1,< 1,< 10,< 10,CN1CCN(c2cnc3ccc(-c4ccc5oc(N)nc5c4)nc3n2)CC1
< 0.1,< 1,< 1,< 1,CC(C)(C)N1CCN(c2cnc3ccc(-c4ccc5oc(N)nc5c4)cc3n2)CC1
< 0.1,< 10,< 10,< 10,CC(C)(C)N1CCN(C(=O)c2cnc3ccc(-c4ccc5oc(N)nc5c4)cn23)CC1
< 10,> 10,> 10,> 10,Nc1nc2cc(-c3ccc4ncc(C(=O)N5CCOCC5)cc4c3)ccc2o1
< 1,> 10,> 10,> 10,Nc1nc2cc(-c3ccc4ncc(-c5ccnc(N6CCOCC6)c5)nc4c3)ccc2o1
< 0.1,< 10,< 1,< 0.1,Nc1nc2cc(-c3ccc4ncc(-c5ccncc5)nc4c3)ccc2o1
< 0.1,< 0.1,< 0.1,< 0.1,C[C@H](N)C(=O)N1CCN(c2cnc3ccc(-c4ccc5oc(N)nc5c4)nc3n2)CC1
< 0.1,< 0.1,< 1,< 0.1,CC(C)N1CCN(c2cnc3ccc(-c4ccc5oc(N)nc5c4)cc3n2)CC1

IC50 [1] [µM],IC50 [2] [µM],IC50 [3] [µM],IC50 [4] [µM],SMILES
> 10,> 10,> 10,> 10,CC(=O)Nc1nc2ccc(-c3nc(N4CCOCC4)c4sc(CN5CCN(S(C)(=O)=O)CC5)cc4n3)cc2s1
< 0.1,< 1,< 1,< 1,NCC(=O)N1CCN(c2cnc3ccc(-c4ccc5oc(N)nc5c4)cc3n2)CC1
< 0.1,< 1,> 10,< 1,Nc1nc2ccc(-c3ccc4ncc(N5CCOCC5)nc4c3)cc2o1
< 0.1,< 1,< 10,< 0.1,Nc1nc2cc(-c3ccc4ncc(N5CCNC(=O)C5)nc4n3)ccc2o1
< 0.1,< 10,< 10,< 0.1,CCOC(=O)N1CC=C(c2cnc3ccc(-c4ccc5oc(N)nc5c4)nc3n2)CC1
< 0.1,> 10,> 10,< 0.1,Nc1nc2cc(-c3ccc4ncc(N5CC6CCC(C5)O6)cc4n3)ccc2o1
< 0.1,< 1,< 0.1,< 0.1,CS(=O)(=O)N1CCC(Nc2ncnc3ccc(-c4ccc5oc(N)nc5c4)cc23)CC1
< 0.1,> 10,> 10,< 1,Nc1nc2ccc(-c3ccc4ncc(N5CCOCC5)nc4c3)cc2s1
< 0.1,< 10,> 10,< 10,Nc1nc2cc(-c3ccc4ncn(C5CCNCC5)c(=O)c4c3)ccc2o1
< 0.1,> 10,< 1,< 0.1,Nc1nc2cc(-c3ccc4ncc(C(=O)Nc5cccnc5)n4c3)ccc2o1
< 0.1,< 10,> 10,> 10,CC(C)N1CCN(C(=O)c2cnc3ccc(-c4ccc5oc(N)nc5c4)cn23)CC1
< 1,< 10,> 10,< 1,Nc1nc2cc(-c3ccc4ncc(C(=O)N5CCOCC5)n4c3)ccc2s1
< 1,< 0.1,> 10,< 10,CN1CCN(c2cnc3ccc(-c4ccc5sc(N)nc5c4)cc3n2)CC1
< 10,> 10,> 10,> 10,Nc1nc2cc(-c3ccc4ncn(C5CCOCC5)c4c3)ccc2o1 [Compound 48]
< 0.1,< 10,< 1,< 10,CC(C)N1CCC(Nc2ncnc3ccc(-c4ccc5oc(N)nc5c4)cc23)CC1
< 0.1,< 1,< 10,< 1,CS(=O)(=O)CCN1CCN(c2cnc3ccc(-c4ccc5oc(N)nc5c4)cc3n2)CC1
< 0.1,< 1,< 10,< 0.1,COC(=O)N1CCN(c2cnc3ccc(-c4ccc5oc(N)nc5c4)cc3n2)CC1
< 0.1,> 10,> 10,< 0.1,Cc1ccc(-c2cnc3ccc(-c4ccc5oc(N)nc5c4)cc3n2)cn1
< 0.1,< 0.1,< 0.1,< 0.1,Nc1nc2cc(-c3ccc4nccc(-c5ccncc5)c4c3)ccc2s1
